Source: ChEMBL document CHEMBL3745707 (Bioorg Med Chem, 2016)

Experiments:
[1] = cells; assay type: functional, cell-based; conditions: Homo sapiens, DU-145, 72 h
[2] = system: K562; test: cells; assay type: functional, cell-based; conditions: Homo sapiens, K562, 72 h

| IC50 [1] | IC50 [2] | Compound |
| --- | --- | --- |
| 5 µM | 5 µM | CN1CCN(c2ccc(Nc3ncc4cc(S(=O)(=O)c5ccc(F)cc5F)c(=O)n(C)c4n3)cc2)CC1 |
| 1 µM | 1 µM | O=c1c(S(=O)(=O)c2ccc(F)cc2F)cc2cnc(Nc3ccc4[nH]ccc4c3)nc2n1CC1CC1 |
| 5 µM | 5 µM | O=c1c(S(=O)(=O)c2ccc(F)cc2F)cc2cnc(Nc3ccc4[nH]ccc4c3)nc2n1C1CCCC1 |
| 0.5 µM | 0.5 µM | Cn1c(=O)c(S(=O)(=O)c2ccc(F)cc2F)cc2cnc(Nc3ccc4sccc4c3)nc21 |
| 10 µM | 5 µM | COC(=O)Cn1c(=O)c(S(=O)(=O)c2ccc(F)cc2F)cc2cnc(Nc3ccc4[nH]ccc4c3)nc21 |
| 10 µM | 7 µM | O=c1c(S(=O)(=O)c2ccc(F)cc2F)cc2cnc(Nc3ccc4[nH]ccc4c3)nc2n1CC1CCCC1 |
| 5 µM | 5 µM | Cn1c(=O)c(S(=O)(=O)c2ccc(F)cc2F)cc2cnc(Nc3ccc4cc[nH]c4c3)nc21 |
| 15 µM | 15 µM | Cc1ccc(S(=O)(=O)c2cc3cnc(Nc4cnc5c(c4)CC(=O)N5)nc3n(C)c2=O)cc1 |
| 10 µM | 10 µM | Cn1c(=O)c(S(=O)(=O)c2ccc(F)cc2)cc2cnc(Nc3ccc4[nH]cnc4c3)nc21 |
| 0.5 µM | 0.5 µM | O=c1c(S(=O)(=O)c2ccc(F)cc2F)cc2cnc(Nc3ccc4[nH]ccc4c3)nc2n1C1CC1 |
| 15 µM | 15 µM | Cn1c(=O)c(S(=O)(=O)c2ccc(Cl)cc2)cc2cnc(Nc3cnc4ccccc4c3)nc21 |
| 10 µM | 10 µM | Cn1c(=O)c(S(=O)(=O)c2ccc(F)cc2)cc2cnc(Nc3ccc4cc[nH]c4c3)nc21 |
| 0.75 µM | 0.75 µM | Cc1cc2cc(Nc3ncc4cc(S(=O)(=O)c5ccc(F)cc5F)c(=O)n(C)c4n3)ccc2[nH]1 |
| 0.75 µM | 0.75 µM | Cc1ccc(S(=O)(=O)c2cc3cnc(Nc4ccc5[nH]ccc5c4)nc3n(C)c2=O)cc1 |
| 1 µM | 5 µM | Cn1c(=O)c(S(=O)(=O)c2ccccc2)cc2cnc(Nc3cnc4[nH]ccc4c3)nc21 |
| 10 µM | 5 µM | Cn1c(=O)c(S(=O)(=O)c2ccc(C(=O)O)cc2)cc2cnc(Nc3ccc4[nH]ccc4c3)nc21 |
| 100 µM | 15 µM | Cn1c(=O)c(S(=O)(=O)c2ccc(F)cc2F)cc2cnc(Nc3ccc4c(c3)CC(=O)N4)nc21 |
| 0.4 µM | 0.2 µM | Cn1c(=O)c(S(=O)(=O)c2ccc([N+](=O)[O-])cc2F)cc2cnc(Nc3ccc4[nH]ccc4c3)nc21 |
| 50 µM | 30 µM | Cn1c(=O)c(S(=O)(=O)c2ccc(F)cc2F)cc2cnc(Nc3ccncn3)nc21 |
| 0.75 µM | 0.75 µM | Cn1ccc2cc(Nc3ncc4cc(S(=O)(=O)c5ccc(Cl)cc5Cl)c(=O)n(C)c4n3)ccc21 |
| 10 µM | 10 µM | Cc1ccc(S(=O)(=O)c2cc3cnc(Nc4ccc5ncccc5c4)nc3n(C)c2=O)cc1 |
| 15 µM | 15 µM | Cn1c(=O)c(S(=O)(=O)c2ccc(F)cc2F)cc2cnc(Nc3ccc4occc4c3)nc21 |
| 50 µM | 100 µM | Cn1c(=O)c(S(=O)(=O)c2ccccc2)cc2cnc(Nc3ccc4ncccc4c3)nc21 |
| 8 µM | 1.5 µM | Cn1c(=O)c(S(=O)(=O)c2ccc(N)cc2F)cc2cnc(Nc3ccc4[nH]ccc4c3)nc21 |
| 30 µM | 30 µM | Cn1c(=O)c(S(=O)(=O)Cc2ccc(F)cc2)cc2cnc(Nc3ccc4[nH]ccc4c3)nc21 |
| 0.75 µM | 0.75 µM | Cn1c(=O)c(S(=O)(=O)c2ccc(F)cc2F)cc2cnc(Nc3cnc4[nH]ccc4c3)nc21 |

| IC50 [1] | IC50 [2] | Compound |
| --- | --- | --- |
| 30 µM | 15 µM | COc1ccc(Nc2ncc3cc(S(=O)(=O)c4ccc(Cl)cc4)c(=O)n(C)c3n2)cc1 |
| 1 µM | 1 µM | Cn1c(=O)c(S(=O)(=O)c2ccc(Cl)cc2Cl)cc2cnc(Nc3ccc4[nH]ccc4c3)nc21 |
| 10 µM | 5 µM | Cc1ccc(S(=O)(=O)c2cc3cnc(Nc4cccc5[nH]ccc45)nc3n(C)c2=O)cc1 |
| 0.75 µM | 0.75 µM | CCn1c(=O)c(S(=O)(=O)c2ccc(F)cc2F)cc2cnc(Nc3ccc4[nH]ccc4c3)nc21 |
| 5 µM | 5 µM | Cn1c(=O)c(S(=O)(=O)Nc2ccc(F)cc2F)cc2cnc(Nc3ccc4[nH]ccc4c3)nc21 |
| 10 µM | 10 µM | O=c1c(S(=O)(=O)c2ccc(F)cc2F)cc2cnc(Nc3ccc4[nH]ccc4c3)nc2n1C1CCCCC1 |
| 0.25 µM | 0.1 µM | Cn1c(=O)c(S(=O)(=O)c2ccc(Cl)cc2)cc2cnc(Nc3ccc4[nH]ccc4c3)nc21 |
| 0.75 µM | 1.5 µM | Cn1c(=O)c(S(=O)(=O)c2ccc(F)cc2F)cc2cnc(Nc3cccc4[nH]ccc34)nc21 |
| 5 µM | 5 µM | Cn1c(=O)c(S(=O)(=O)c2ccc(F)cc2)cc2cnc(Nc3ccc4occc4c3)nc21 |
| 100 µM | 75 µM | COc1ccc(Nc2ncc3cc(S(=O)(=O)c4ccc(C)cc4)c(=O)n(C)c3n2)cc1 |
| 5 µM | 5 µM | COC(=O)Cn1ccc2cc(Nc3ncc4cc(S(=O)(=O)c5ccc(F)cc5F)c(=O)n(C)c4n3)ccc21 |
| 15 µM | 15 µM | Cn1c(=O)c(S(=O)(=O)c2ccc(Cl)cc2)cc2cnc(Nc3ccc(Cl)cc3)nc21 |
| 10 µM | 10 µM | Cn1c(=O)c(S(=O)(=O)c2ccc(F)cc2F)cc2cnc(Nc3ccc4[nH]c(C(=O)O)cc4c3)nc21 |
| 5 µM | 10 µM | Cn1c(=O)c(S(=O)(=O)c2ccc(F)cc2)cc2cnc(Nc3ccc4[nH]ncc4c3)nc21 |
| 0.5 µM | 0.75 µM | Cn1c(=O)c(S(=O)(=O)c2ccc(F)cc2)cc2cnc(Nc3cnc4[nH]ccc4c3)nc21 |
| 15 µM | 15 µM | Cc1ccc(S(=O)(=O)c2cc3cnc(Nc4ccc5cc[nH]c5c4)nc3n(C)c2=O)cc1 |
| 0.75 µM | 0.75 µM | Cn1ccc2cc(Nc3ncc4cc(S(=O)(=O)c5ccc(F)cc5F)c(=O)n(C)c4n3)ccc21 |
| 5 µM | 5 µM | Cn1c(=O)c(C(=O)Nc2ccc(F)cc2)cc2cnc(Nc3ccc4[nH]ccc4c3)nc21 |
| 75 µM | 30 µM | Cn1c(=O)c(S(=O)(=O)c2ccc(F)cc2F)cc2cnc(Nc3ccc4c(c3)C(=O)C(=O)N4)nc21 |
| 5 µM | 5 µM | COc1ccc(S(=O)(=O)c2cc3cnc(Nc4cccc5[nH]ccc45)nc3n(C)c2=O)cc1 |
| 100 µM | 75 µM | Cn1c(=O)c(S(=O)(=O)c2ccc(F)cc2F)cc2cnc(NCc3ccc4[nH]ccc4c3)nc21 |
| 10 µM | 10 µM | Cn1c(=O)c(S(=O)(=O)c2ccccc2)cc2cnc(Nc3ccc4cc[nH]c4c3)nc21 |
| 5 µM | 5 µM | Cn1c(=O)c(S(=O)(=O)c2ccc(Cl)cc2)cc2cnc(Nc3cnc4[nH]ccc4c3)nc21 |
| 5 µM | 5 µM | Cn1c(=O)c(S(=O)(=O)c2ccc(Cl)cc2)cc2cnc(Nc3cccc4[nH]ccc34)nc21 |
| 3 µM | 2 µM | Cn1c(=O)c(S(=O)(=O)c2ccc(F)cc2N)cc2cnc(Nc3ccc4[nH]ccc4c3)nc21 |
| 75 µM | 35 µM | Cn1c(=O)c(S(=O)(=O)c2ccc(F)cc2F)cc2cnc(Nc3ccccn3)nc21 |
